In patent US20260325490A1, “ORAL FORMULATIONS OF EDARAVONE AND IMPROVED METHOD OF MANUFACTURING THEREOF” (BDR PHARMACEUTICALS INTERNATIONAL PRIVATE LIMITED, priority 2022, published 2026):

Legend:
[1] = cited from earlier work
[2] = Chemical stability of Edaravone (hydrolysis, oxidation); type: physicochemical; conditions: aqueous solution, compared to the powdered form
Excerpt: It may be noted that the efficacy of Edaravone has seen an undisputed success since its inception in the therapeutic category of stroke management. Edaravone per se has wide applicability and has potential to be used for more therapeutic indications. The injectable dosage form has been a limiting factor in case of increased use of this product. Importantly, developing an oral dosage form of Edaravone is a challenging process due to its less soluble and less permeable (BCS Class-IV product) nature. Further, an injectable dosage form has inherent difficulty in terms of its usage post hospitalization. […] The inventors of the present invention during development have noted that it was difficult to stabilize Edaravone.

[3] = cited from earlier work; remark: listed apart in the source

For CC1=NN(c2ccccc2)C(=O)C1 [Edaravone, 3-methyl-1-phenyl-2-pyrazolin-5-one], the Lipid permeability [1] is listed as “lower lipid permeability”, the “Bio-pharmaceutics Classification System (BCS) class” value ([1]; poor solubility in water and lower lipid permeability) is listed as “Class IV” and the Decomposition by oxidation [2] is listed as “easily decompose by oxidation”. For the same compound, the “Solubility in acetic acid” value ([3]; acetic acid) was “freely soluble”, the “Solubility in diethyl ether” value ([3]; diethyl ether) was “slightly soluble” and the Solubility in ethanol ([3]; ethanol) was “freely soluble”. The Solubility in methanol ([3]; methanol) was “freely soluble” and the Solubility in water ([3]; water) was “slightly soluble”.
